Data reported in patent US10548906B2, “Methods of promoting hepatic regeneration” (Intercept Pharmaceuticals, Inc., priority 2015, dated 2020).

Assays:
[1] = tested on: FXR; assay: FXR target gene expression in terminal ileum and liver by RT-qPCR (Example 5); type: in vivo, rabbit
Experimental: Total RNA was isolated from terminal ileum and (non)embolized liver lobes using Tri Reagent (Ambion). Following treatment with DNAseI (Promega, Leiden, the Netherlands), 750 ng total RNA was converted to cDNA using the iSCRIPT cDNA synthesis kit (BioRad, Veenendaal, the Netherlands). Quantitative RT-PCR (real-time polymerase chain reaction) was performed on an IQ5 Cycler using SYBR Green chemistry (SYBR Green MasterMix, BioRad) and cDNA equivalent to 7.5 ng total RNA as template. Expression levels were calculated using LinReg software (Ramakers C, et al. Neurosci Lett 2003; 339(1):62-6) and normalized to the geometric mean of Rplp0, Hprt and Gapdh. Predicted product size was checked by agarose gel electrophoresis. PCR analysis was performed using tissue obtained at day 3 and 7 for n=6 per treatment group.

[2] = tested on: Ki67-positive hepatocytes; assay: Ki67 staining of liver sections, hepatocyte proliferation after PVE (Example 5); type: in vivo, rabbit
Experimental: (§1) Liver tissue (left lateral and caudal lobes) was fixed in buffered formalin for 48 h, and subsequently dehydrated and embedded in paraffin. Four-micron sections of liver tissue were cut and stained with standard hematoxylin and eosin stain. Sections were scored for lobular and portal inflammation according to Table 1. Additionally, liver sections were stained with Ki67 antibodies to quantify hepatocyte proliferation, and hematoxylin counterstain as described in detail previously (van der Loos C M, et al. J Histochern Cytochern 2013; 61(1):11-8; Marsman H A, et al. Br J Surg 2013; 100(5):674-83). Ki67-positive hepatocytes were counted in a total of five high power fields per animal, by a hepatopathologist (JV) blinded to the group allocation. Liver histology was assessed at day 3 and 7 for n=6 per treatment group.

[3] = tested on: mice; conditions: 2 years, 25 mg/kg; cited from earlier work
[4] = tested on: Adult female rabbits; assay: PVE in rabbits: CLV and bile salts (Example 5a); type: in vivo, rabbit; conditions: day 3 after PVE
Experimental: Adult female rabbits received vehicle or the FXR agonist obeticholic acid (OCA; 10 mg/kg, daily oral gavage) for 7 days prior to, and after embolization (day 0) of the cranial liver lobes. Effectiveness of PVE was confirmed by portography, and caudal liver volume (CLV) was analyzed by CT-volumetric analysis at days −7, −1, +3 and +7. Rabbits were sacrificed at day +3 and +7 (n=5-6 per group).

[5] = tested on: New Zealand White rabbits; assay: Hepatobiliary scintigraphy, 99mTc-mebrofenin uptake after PVE (Example 5); type: in vivo, rabbit
Experimental: Liver function was assessed using hepatobiliary scintigraphy (HBS) with ^99mTc-labeled (2,4,6 trimethyl-3-bromo) iminodiacetic acid (^99mTc-mebrofenin, Bridatec, GE Healthcare, Eindhoven, the Netherlands) at days −7, −1, +3 and +7. Rabbits (n=6 per treatment group) were anesthetized and positioned on an imaging table with the liver and heart positioned under a large field-of-view single photon emission computed tomography (SPECT/CT) camera (Siemens Symbia T16). Regions of interest were drawn around the left ventricle for blood pool readings, around the entire liver for total liver uptake, and around the caudal liver lobe (FIG. 10; the yellow region of interest (ROI) delineates the left ventricle, the red ROI the total liver and the pink ROI the caudal liver lobe; a marked decrease in cranial liver lobe activity and increase in caudal liver lobe activity was seen following portal vein embolization.). Per rabbit, a dose of 50 MBq ^99mTc-mebrofenin was administered via a lateral ear vein directly before the start of acquisition.
The geometric mean dataset of the anterior and posterior cameras was used for analysis. Hepatic ^99mTc-mebrofenin uptake rate was calculated as an increase of ^99mTc-mebrofenin uptake over two minutes, corrected for perfusion. Total liver uptake was represented by the total hepatic ^99mTc-mebrofenin uptake rate, and calculated as a percentage of the injected dose per minute. The fractional ^99mTc-mebrofenin uptake rate was calculated for the caudal liver lobe, based of distribution of segmental activity and was corrected for baseline measurements at t=−7 days.

[6] = tested on: New Zealand White rabbits; assay: Liver injury after PVE: clinical chemistry and H&E histology (Example 5); type: in vivo, rabbit
Experimental: as §1
Serum alanine transaminase (ALT), amino aspartate aminotransferase (AST), gamma-glutamyl transferase (γGT), and alkaline phosphatase (ALP) were determined by the Department of Clinical Chemistry (Academic Medical Center, Amsterdam, The Netherlands) using a Cobas 8000 modular analyzer (Roche, Basel, Switzerland) on samples obtained from 12 animals per treatment group.

[7] = tested on: Wistar rats; assay: Hepatobiliary injury markers and histology in rBDL rats before and after PHx (Example 6); type: in vivo, rat
Experimental: At baseline (i.e., directly before PHx) and one to five days after PHx, animals were euthanized under isoflurane anesthesia by exsanguination. Blood samples were collected from the caval vein in heparin-anticoagulated vacutainers (BD, Franklin Lakes, N.J.) and centrifuged for 10 min (3000×g, 4° C.). In rBDL animals sacrificed at baseline, bile was aspirated with a syringe from the dilated extrahepatic bile duct, weighed, and stored at −80° C. The liver and ileum were excised, weighed, loafed, and either fixed in a 10% (vol/vol) neutralized formalin solution (J. T. Baker, Center Valley, Pa.), snap-frozen in liquid nitrogen and stored at −80° C., or collected in RNAlater (Qiagen, Venlo, the Netherlands) and stored at −20° C. Liver regrowth was calculated from the regenerated liver mass, and was expressed as percentage of total liver mass prior to PHx. The projected remnant liver mass was calculated using the weight of the resected liver segments, which represent 70% of the total liver mass. Dry liver weights were measured to correct for hepatic water content [Kloek 2010a].
After formalin fixation, liver specimens were dehydrated, paraffin-embedded, and stained with hematoxylin and eosin (H&E), the collagen type I and III stain picrosirius red, or the proliferation marker Ki67 [Marsman 2013]. Semi-quantitative analysis of H&E- and picrosirius red-stained liver histology was performed by an experienced hepatopathologist (JV) blinded to the experimental groups using a scoring system detailed in Table 1. Ki67-positive hepatocyte nuclei were manually counted by two observers (RFG and PBO) in four randomly-selected microscopic fields at 200× magnification.

[8] = prior to PHx, vs control and untreated rBDL

With `CC[C@H]1[C@@H](O)[C@@H]2[C@H](CC[C@]3(C)[C@@H]([C@H](C)CCC(=O)O)CC[C@@H]23)[C@@]2(C)CC[C@@H](O)C[C@@H]12` [Compound 1, 3α,7α-dihydroxy-6α-ethyl-5β-cholanic acid] the “hepatic βKlotho transcript level” value ([1]; after three days) was “minor downregulation”, the “hepatic Shp expression” value ([1]; caudal liver) was “without transcriptional induction” and the “hepatic expression of Fgfr4” value ([1]; caudal liver) was “not affected”. For the same compound, the “hepatic expression of Cyp7a1” value ([1]; caudal liver, day +3) was “strongly suppressed”, the “Ostβ expression in the liver” value ([1]; day +3) was “elevated” and the “ileal Shp expression” value ([1]; day +3) was “induction”. For the same compound, the “hepatic Fxr expression” value ([1]; day +7) was “reduced”, the “FXR activation (aggregated gene expression analysis)” value ([1]; ileum and liver, listed as OCA) was “activation of both ileal and hepatic FXR” and the “ileal expression of Fxr” value ([1]; terminal ileum) was “no effect”. The “ileal expression of Ostβ” value ([1]; terminal ileum) was “not affected”, the “number of Ki67-positive hepatocytes relative to vehicle” value ([2]; 3 days after PVE) was 1.6 fold and the “Ki67-positive hepatocytes vs vehicle” value ([2]; day +3) was “Increased numbers”. The malignant transformation [3] was “does not lead to malignant transformation”, the “increase in CLV” value [4] was 59.3±19.2% and the “increase in contribution of caudal liver lobe (CLF share) to total liver mebrofenin uptake” value ([5]; 3 days after PVE) was 44.5±5.4%. The “increase in caudal liver function relative to vehicle” value ([5]; day +3) was 1.2 fold, the “total liver uptake of mebrofenin” value ([5]; days −1, +3, +7, N=6) was “remained stable in both groups” and the “plasma ALP vs vehicle” value ([6]; after PVE) was “slightly higher”. For the same compound, the “plasma γGT vs vehicle” value ([6]; after PVE) was “slightly higher”, the “hepatocellular injury or cholestasis” value ([6]; conclusion from ALT, AST, γGT, ALP) was “did not cause hepatocellular injury or cholestasis” and the “histological scoring of H&E sections of the caudal lobe” value ([6]; day 3 and 7, vs vehicle, listed as OCA) was “no differences between groups”. For the same compound, the “plasma transaminase levels vs vehicle” value ([6]; summary) was “similar”, the bilirubin clearance ([7]; after PHx) was “lagged marginally” and the “decline of ALP levels” value ([7]; after PHx) was ~4 fold. The “time to normalization of hepatobiliary injury markers” value ([7]; after PHx, rBDL groups, recovery more gradual with OCA) was ≤ 48 h, the “ALP levels vs other study arms” value ([7]; during regeneration) was “remained higher” and the “liver injury after hepatectomy” value ([7]; histology day 5 after PHx) was “did not exacerbate liver injury after hepatectomy”. The plasma gamma glutamyltransferase ([7]; prior to PHx) was “followed the same dynamics as ALP”, the “plasma alanine aminotransferase (ALT)” value [7, 8] was “considerably higher” and the “plasma alkaline phosphatase (ALP)” value [7, 8] was “considerably higher”.
